According to PubChem BioAssay (NCI):
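Interpolation was linear, between the two tested concentrations surrounding the appropriate level; five concentrations were tested over 48 hours in 96-well plates. At the GI50, growth is halved. TGI: concentration producing complete growth inhibition.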

Columns and labels:
Experiment in all cases: NCI tumour cell line growth inhibition, 48 h
KM12 colon = system: KM12 colon
SN12C renal = system: SN12C renal
SF-539 CNS = system: SF-539 CNS
EKVX NSCLC = system: EKVX NSCLC
OVCAR-8 ovarian = system: OVCAR-8 ovarian
K-562 leukemia = system: K-562 leukemia
LOX IMVI melanoma = system: LOX IMVI melanoma
RXF 393 renal = system: RXF 393 renal
HT29 colon = system: HT29 colon
HS 578T breast = system: HS 578T breast

| Compound | TGI (KM12 colon) [µM] | TGI (SN12C renal) [µM] | TGI (SF-539 CNS) [µM] | TGI (EKVX NSCLC) [µM] | TGI (OVCAR-8 ovarian) [µM] | TGI (K-562 leukemia) [µM] | TGI (LOX IMVI melanoma) [µM] | TGI (RXF 393 renal) [µM] | TGI (HT29 colon) [µM] | TGI (HS 578T breast) [µM] | GI50 (KM12 colon) [µM] | GI50 (SN12C renal) [µM] | GI50 (HS 578T breast) [µM] | GI50 (HT29 colon) [µM] | GI50 (SF-539 CNS) [µM] | GI50 (OVCAR-8 ovarian) [µM] |
| --- | --- | --- | --- | --- | --- | --- | --- | --- | --- | --- | --- | --- | --- | --- | --- | --- |
| Cc1ccc(OP2(=O)Oc3ccc4ccccc4c3CN2c2ccc(Cl)cc2)cc1C (configuration not stated) | > 100 | > 100 | > 100 | > 100 | > 100 | > 100 | > 100 | > 100 | > 100 | – | – | – | – | – | – | – |
| CC(C)(C)C1CCC2c3c([nH]c4ccccc34)C3C(=O)N(c4cc(Br)cc(Br)c4)C(=O)C3C2C1 (configuration not stated) | > 100 | 29.1 | 34 | 59.4 | 50.2 | – | > 100 | – | > 100 | 30.8 | – | – | – | – | – | – |
| CCOC(=O)c1nc2c3c(ncn2n1)Oc1c(c(-c2ccccc2)nn1-c1ccccc1)C3c1ccc(OC)c(OC)c1 (configuration not stated) | – | > 100 | 26.8 | > 100 | 82.5 | > 100 | > 100 | 91.4 | > 100 | 38 | – | – | – | – | – | – |
| COc1ccc(-n2sc3ncc(-c4ccccc4)cc3c2=O)cc1 | > 100 | 80.2 | – | > 100 | > 100 | – | > 100 | > 100 | – | – | – | – | – | – | – | – |
| COc1ccc(C[C@@H]2CN(C(=O)c3ccccc3)[C@H](Cc3ccc(O)cc3)CN2C(=O)c2ccccc2)cc1Br | > 100 | > 100 | > 100 | > 100 | > 100 | > 100 | > 100 | – | > 100 | > 100 | – | – | – | – | – | – |
| COc1ccc2c(c1O)-c1c(OC)c(OC)cc3c1[C@H](C2)[N+](C)(C)CC3 | > 100 | > 100 | > 100 | > 100 | > 100 | > 100 | > 100 | – | > 100 | > 100 | – | – | – | – | – | – |
| Oc1c(OCc2nnc(CCCCCCCCc3nnc(COc4ccc5ccccc5c4O)n3Nc3ccccc3)n2Nc2ccccc2)ccc2ccccc12 | 19 | 29.2 | 20 | 31.6 | 28.3 | > 100 | – | 30.9 | 26.2 | 22.2 | – | – | – | – | – | – |
| Nc1cc2c(cc1[N+](=O)[O-])[nH]c1c(-c3ccccc3)nccc12 | 35.2 | > 100 | > 75.4 | > 80.5 | > 100 | > 100 | 28.8 | 73.1 | 46.8 | – | – | – | – | – | – | – |
| CSc1nc2c(c(N(C)C)n1)C=Nn1c(nc3ccccc31)S2 | > 100 | > 100 | – | – | > 100 | > 100 | > 100 | > 100 | > 100 | > 100 | – | – | – | – | – | – |
| On1c(-c2ccccc2)c(-c2c(-c3ccccc3)n(O)c3ccccc23)c2ccccc21 | > 100 | > 100 | 58.8 | – | > 100 | > 100 | 73.2 | > 100 | > 100 | – | – | – | – | – | – | – |
| ClCCN(CCCl)Cc1ccc(Nc2ccnc3cc(Cl)ccc23)cc1 | 5.57 | 4.02 | – | – | – | – | – | – | 4.73 | 8.38 | 2.07 | 0.48 | 2.92 | 1.28 | – | – |
| O=c1[nH]cnc2c1nnn2CCCn1nnc2c(=O)[nH]cnc21 | > 100 | > 100 | > 100 | > 100 | > 100 | > 100 | > 100 | > 100 | > 100 | – | – | – | – | – | – | – |
| CN1CC(c2ccccc2)=Cc2c1ccc(N)c2N=N | > 100 | > 100 | > 100 | > 100 | > 100 | > 100 | > 100 | – | > 100 | > 100 | – | – | – | – | – | – |
| Cc1c(C)c(C)c(-n2c(=O)n(C)c(=O)n2C(C)(C)C)c(C)c1C | > 100 | > 100 | > 100 | – | – | > 100 | > 100 | > 100 | – | > 100 | – | – | – | – | – | – |
| c1cnc2c(c1)-n1cccc1C1(CCOCC1)NN2 | > 100 | > 100 | > 100 | > 100 | > 100 | > 100 | – | > 100 | > 100 | – | – | – | – | – | – | – |
| COc1ccc(C2CC(c3cc4c(C)c(C(=O)c5ccccc5)oc4cc3O)=Nc3ccccc3S2)cc1OC (configuration not stated) | > 34.8 | > 100 | > 86.2 | > 100 | > 100 | > 100 | > 100 | – | > 100 | > 100 | – | – | – | – | – | – |
| CO/C(=N\N=C(/C)C(F)(F)F)c1ccncc1 | > 100 | > 100 | – | – | > 100 | > 100 | – | > 100 | > 100 | > 100 | – | – | – | – | – | – |
| O=C(NCCNCCO)N/N=C/c1cccc([N+](=O)[O-])c1 | > 100 | > 100 | > 100 | – | > 100 | > 100 | > 100 | > 100 | > 100 | – | – | – | – | – | – | – |
| COC[C@H]1C(=O)NCC(=O)N2NCCC[C@H]2C(=O)N(O)[C@H](C)C(=O)O[C@@H](C(C)C)[C@H](NC(=O)[C@](C)(O)[C@]2(O)CC[C@@H](CC(C)C)[C@H](C)O2)C(=O)N2NCCC[C@@H]2C(=O)N1O | 0.0241 | 0.0411 | 0.0285 | – | 0.0306 | – | – | – | 0.0293 | 0.0244 | 0.01 | < 0.0126 | < 0.01 | 0.0144 | 0.0146 | < 0.01 |
| C1=C2SSC3=CC=C(SSc4ccc(s4)SSC4=CC=C(SSC(=C1)S2)S4)S3 | > 100 | > 100 | – | > 100 | > 100 | > 100 | > 100 | > 100 | > 100 | – | – | – | – | – | – | – |
| CC1=C/C(=C(\c2ccc(N(C)C)cc2)c2ccc([N+](C)(C)C)cc2)C=CC1=[N+](C)C | 16.1 | 22.4 | 34.6 | 15.8 | 69.8 | > 100 | 17.7 | 25.4 | 77.9 | – | – | – | – | – | – | – |
| C=C/C(C)=C/[C@H](C)C(=O)C[C@H](O)CC1CC(=O)NC(=O)C1 | > 100 | > 100 | > 100 | > 100 | > 100 | > 100 | > 100 | > 100 | > 100 | – | – | – | – | – | – | – |
